pKi: −log10 of the molar value. Read-outs that look alike come from different tables or passages of the source.

In assay [1] the target is T1, α1C Human Adrenergic Receptor (Homo sapiens, UniProt P35348).
T1 construct: The entire coding region of α1C (1401 bp); expressed in transfected cells
T1 sequence (P35348 1-466): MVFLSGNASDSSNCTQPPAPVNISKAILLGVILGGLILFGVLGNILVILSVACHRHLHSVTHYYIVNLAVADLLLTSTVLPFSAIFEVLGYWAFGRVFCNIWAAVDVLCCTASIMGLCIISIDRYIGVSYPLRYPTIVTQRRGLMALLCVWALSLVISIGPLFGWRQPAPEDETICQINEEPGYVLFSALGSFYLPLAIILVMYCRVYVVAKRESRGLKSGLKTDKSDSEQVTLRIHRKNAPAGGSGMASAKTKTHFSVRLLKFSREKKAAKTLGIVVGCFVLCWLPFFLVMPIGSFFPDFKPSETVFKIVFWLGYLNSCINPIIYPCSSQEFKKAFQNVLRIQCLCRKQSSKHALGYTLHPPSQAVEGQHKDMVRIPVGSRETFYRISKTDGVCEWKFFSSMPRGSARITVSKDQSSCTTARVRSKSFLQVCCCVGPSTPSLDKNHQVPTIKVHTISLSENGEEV
The assay can be described thus: Radioligand binding, [3H]prazosin, cloned human α1C adrenergic receptor. The note with it: cloned human receptor, LM(tk-) cell membranes, mean; for pKi: PKi alpha-1 1c; for Ki: read-out: PKi alpha-1 1c (converted). In a few lines:
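Read-out is filter-retained [3H]prazosin (0.5 nM) bound to membranes of LM(tk−) cells stably carrying the human α1C receptor. Incubation ran 20 min at 37° C. at pH 7.5, with 10 μM phentolamine marking nonspecific binding.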

The target of the next assay is T2, α2B receptor (Homo sapiens, UniProt P18089).
T2 construct: host or cells: LM(tk-) cells, line L-NGC-α2B
T2 sequence (P18089 1-450): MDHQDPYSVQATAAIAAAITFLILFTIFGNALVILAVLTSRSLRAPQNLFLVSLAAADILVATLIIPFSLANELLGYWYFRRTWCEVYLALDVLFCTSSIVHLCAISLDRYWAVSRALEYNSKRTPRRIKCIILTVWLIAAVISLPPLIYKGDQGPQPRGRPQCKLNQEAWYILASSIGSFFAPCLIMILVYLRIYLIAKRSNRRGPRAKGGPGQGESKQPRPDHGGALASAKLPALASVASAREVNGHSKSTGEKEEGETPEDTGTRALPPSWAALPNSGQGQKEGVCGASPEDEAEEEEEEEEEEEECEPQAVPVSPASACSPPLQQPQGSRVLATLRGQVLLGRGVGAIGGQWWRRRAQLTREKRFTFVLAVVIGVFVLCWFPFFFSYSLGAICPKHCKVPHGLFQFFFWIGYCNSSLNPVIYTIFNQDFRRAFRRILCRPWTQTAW
The assay can be described thus: Competition binding, [3H]rauwolscine, human α2B receptor. The note with it: for pKi: PKi alpha-2 2b; for Ki: read-out: PKi alpha-2 2b (converted). In a few lines: (§1)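 Cell lysates from stably transfected LM(tk−) lines are resuspended in 25 mM glycylglycine (pH 7.6 at room temperature), incubated to equilibrium with 0.5 nM [3H]rauwolscine plus competitor, then filtered through GF/B filters; 10 μM phentolamine defines nonspecific binding.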

The target of a further assay is T3, α2C receptor (Homo sapiens, UniProt P18825).
T3 construct: host or cells: LM(tk-) cells, line L-α2C
T3 sequence (P18825 1-462): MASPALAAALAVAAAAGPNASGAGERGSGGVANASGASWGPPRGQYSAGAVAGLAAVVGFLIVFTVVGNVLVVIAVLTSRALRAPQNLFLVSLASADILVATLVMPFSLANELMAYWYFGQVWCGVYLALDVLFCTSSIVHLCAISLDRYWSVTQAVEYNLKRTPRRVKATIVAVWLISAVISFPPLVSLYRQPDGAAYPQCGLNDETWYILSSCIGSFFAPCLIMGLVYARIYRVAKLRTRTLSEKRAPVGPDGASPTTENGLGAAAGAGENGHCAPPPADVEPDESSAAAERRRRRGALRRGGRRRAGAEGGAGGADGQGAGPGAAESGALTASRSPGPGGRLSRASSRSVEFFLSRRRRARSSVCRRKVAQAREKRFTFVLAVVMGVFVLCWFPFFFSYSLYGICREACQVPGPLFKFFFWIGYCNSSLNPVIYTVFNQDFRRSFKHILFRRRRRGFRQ
The assay can be described thus: Competition binding, [3H]rauwolscine, human α2C receptor. Conditions: for Ki: [3H]rauwolscine, human receptor, LM(tk-) cell lysates, mean, read-out: PKi alpha-2 2c (converted); for pKi: PKi alpha-2 2c. Put shortly:
as §1

Setting [2] is: [3H]rauwolscine, human receptor, LM(tk-) cell lysates, mean.

In general, pKi refers to the negative decadic logarithm of the Ki, by convention in mol/L. In the case of `CCC1=C(C(=O)NC)C(c2ccc([N+](=O)[O-])cc2)C(C(=O)NCCCN2CCC(c3ccccc3)(c3ccccc3)CC2)=C(CCCCN)N1` (stereo not drawn) [Example 172, 2-(4-Aminobutyl)-6-ethyl-1,4-dihydro-5-(N-methyl)carboxamido-4-(4-nitrophenyl)-3-{N-[3-(4,4-diphenylpiperidin-1-yl)propyl]}carboxamidopyridine], the negative-log Ki (pKi) was 8.55 in assay [1] and 5.46 at α2B receptor (setting [2]). The Ki at α2C receptor is 692 nM.
For `CCC1=C(C(=O)NC)C(c2ccc([N+](=O)[O-])cc2)C(C(=O)NCCCN2CCC(c3ccccc3)(c3ccccc3)CC2)=C(CCCCOC)N1` (stereo not drawn) [Example 173, 6-Ethyl-1,4-dihydro-2-(4-methoxybutyl)-5-(N-methyl)carboxamido-4-(4-nitrophenyl)-3-{N-[3-(4,4-diphenylpiperidin-1-yl)propyl]}carboxamidopyridine] the same measures were 8.40, 6.02 and 1480 nM.
Take `CCC1=C(C(=O)NC)C(c2ccc([N+](=O)[O-])cc2)C(C(=O)NCCCN2CCC(C(=O)OC)(c3ccccc3)CC2)=C(CCCCOC)N1` (stereo not drawn) [Example 174, 6-Ethyl-1,4-dihydro-2-(4-methoxybutyl)-3-{N-[3-(4-methoxycarbonyl-4-phenylpiperidin-1-yl)propyl]}carboxamido-5-(N-methyl)carboxamido-4-(4-nitrophenyl)pyridine]: the Ki in assay [1] was 4.07 nM; on α2B receptor (setting [2]), 955 nM; on α2C receptor, 676 nM.
Take `CC(=O)C1=C(C)NC(CCCCN)=C(C(=O)NCCCN2CCC(c3ccccc3)(c3ccccc3)CC2)C1c1ccc([N+](=O)[O-])cc1` (stereo not drawn) [Example 176, 5-Acetyl-2-(4-aminobutyl)-1,4-dihydro-6-methyl-4-(4-nitrophenyl)-3-{N-[3-(4,4-diphenylpiperidin-1-yl)propyl]}carboxamidopyridine]: the results for the negative-log Ki (pKi) (in assay [1]; on α2B receptor (setting [2])) were 8.43 and 5.92, respectively. In addition, the Ki at α2C receptor was 724 nM.
Regarding `COC(=O)C1(c2ccccc2)CCN(CCCNC(=O)C2=C(CCCCN)NC(C)=C(C(N)=O)C2c2ccc([N+](=O)[O-])cc2)CC1` (stereo not drawn) [Example 177, 2-(4-Aminobutyl)-5-carboxamido-1,4-dihydro-3-{N-[3-(4-methoxycarbonyl-4-phenylpiperidin-1-yl)propyl]}carboxamido-6-methyl-4-(4-nitrophenyl)pyridine], the Ki in assay [1] is 4.68 nM. Further, the figures for the pKi on α2B receptor and at α2C receptor were 5.54 and 6.08, respectively.
Consider `COC(=O)C1(c2ccccc2)CCN(CCCNC(=O)C2=C(CCCCN)NC(C)=C(C(C)=O)C2c2ccc([N+](=O)[O-])cc2)CC1` (stereo not drawn) [Example 178, 5-Acetyl-2-(4-aminobutyl)-1,4-dihydro-3-{N-[3-(4-methoxycarbonyl-4-phenylpiperidin-1-yl)propyl]}carboxamido-6-methyl-4-(4-nitrophenyl) pyridine], for which the Ki in assay [1] was 2.57 nM; at α2B receptor (setting [2]) it was 759 nM; at α2C receptor, 398 nM.
Turning to `CCC1=C(C(=O)NC)C(c2ccc([N+](=O)[O-])cc2)C(C(=O)NCCCN2CCC(C(=O)OC)(c3ccccc3)CC2)=C(CC)N1` (stereo not drawn) [Example 179, 2,6-Diethyl-1,4-dihydro-3-{N-[3-(4-methoxycarbonyl-4-phenyl-piperidin-1-yl)propyl]}carboxamido-5-(N-methyl)carboxamido-4-(4-nitrophenyl)pyridine], the Ki in assay [1] is 3.31 nM. Also, the pKi was 5.73 at α2B receptor and 5.84 at α2C receptor.
The like results for `CCNC(=O)C1=C(CC)NC(CC)=C(C(=O)NCCCN2CCC(C(=O)OC)(c3ccccc3)CC2)C1c1ccc([N+](=O)[O-])cc1` (stereo not drawn) [Example 180, 2,6-Diethyl-1,4-dihydro-5-(N-ethyl)carboxamido-3-{N-[3-(4-methoxycarbonyl-4-phenylpiperidin-1-yl)propyl]}carboxamido-4-(4-nitrophenyl)pyridine] were, in that order, 3.63 nM, 5.44 and 5.24.
For `CCNC(=O)C1=C(CC)NC(CC)=C(C(=O)NCCCN2CCC(C(=O)OCC)(c3ccccc3)CC2)C1c1ccc([N+](=O)[O-])cc1` (stereo not drawn) [Example 182, 2,6-Diethyl-1,4-dihydro-3-{N-[3-(4-ethoxycarbonyl-4-phenylpiperidin-1-yl)propyl]}carboxamido-5-(N-ethyl)carboxamido-4(4-nitrophenyl)pyridine] the same measures were 2.24 nM, 6.04 and 5.94.
In the case of `COC(=O)C1(c2ccccc2)CCN(CCCNC(=O)C2=C(COCCN=[N+]=[N-])NC(C)=C(C(N)=O)C2c2ccc([N+](=O)[O-])cc2)CC1` (stereo not drawn) [Example 183, 2-[(2-Azidoethoxy)methyl]-5-carboxamido-1,4-dihydro-3-{N-[3-(4-methoxycarbonyl-4-phenylpiperidin-1-yl)propyl]}carboxamido-6-methyl-4-(4-nitrophenyl)pyridine], the Ki in assay [1] is 0.851 nM; on α2B receptor (setting [2]) it was 724 nM; on α2C receptor, 437 nM.
As for `CCNC(=O)C1=C(CC)NC(COCCN)=C(C(=O)NCCCN2CCC(C(=O)OCC)(c3ccccc3)CC2)C1c1ccc([N+](=O)[O-])cc1` (stereo not drawn) [Example 192, 2-[(2-Aminoethoxy)methyl]-3-{N-[3-(4-ethoxycarbonyl-4-phenyl-piperidin-1-yl)propyl]}carboxamido-1,4-dihydro-6-ethyl-5-(N-ethyl)carboxamido-4-(4-nitrophenyl)pyridine], the figures for the Ki (in assay [1]; at α2B receptor (setting [2]); at α2C receptor) were 3.09 nM, 6170 nM and 1480 nM, respectively.
As to `CCOC(=O)C1(c2ccccc2)CCN(CCCNC(=O)C2=C(COCCN)NC(CC)=C(C(N)=O)C2c2ccc([N+](=O)[O-])cc2)CC1` (stereo not drawn) [Example 193, 2-[(2-Aminoethoxy)methyl]-5-carboxamido-3-{N-[3-(4-ethoxycarbonyl-4-phenylpiperidin-1-yl)propyl]}carboxamido-1,4-dihydro-6-ethyl-4-(4-nitrophenyl)pyridine], the Ki in assay [1] was 1.58 nM; at α2B receptor (setting [2]), 2400 nM; at α2C receptor, 631 nM.
In the case of `CCOC(=O)C1(c2ccccc2)CCN(CCCNC(=O)C2=C(COCCN)NC(CC)=C(C(=O)NC)C2c2ccc([N+](=O)[O-])cc2)CC1` (stereo not drawn) [Example 194, 2-[(2-Aminoethoxy)methyl]-3-{N-[3-(4-ethoxycarbonyl-4-phenylpiperidin-1-yl)propyl]}carboxamido-1,4-dihydro-6-ethyl-5-(N-methyl) carboxamido-4-(4-nitrophenyl) pyridine], the values for the Ki (in assay [1]; at α2B receptor (setting [2]); at α2C receptor) were 3.72 nM, 5750 nM and 1070 nM, respectively.
The like results for `CCOC(=O)C1(c2ccccc2)CCN(CCCNC(=O)C2=C(COCCN)NC(CC)=C(C(=O)O)C2c2ccc([N+](=O)[O-])cc2)CC1` (stereo not drawn) [Example 196, 2-[(2-Aminoethoxy)methyl]-3-{N-[3-(4-ethoxycarbonyl-4-phenylpiperidin-1-yl)propyl]}carboxamido-1,4-dihydro-6-ethyl-4-(4-nitrophenyl)pyridine-5-carboxylic Acid] were, in that order, 38.9 nM, 4680 nM and 3090 nM.

The values are drawn from US6608086B2, “Dihydropyridines and new uses thereof” (Synaptic Pharmaceutical Corporation, priority 1993, dated 2003).
